The structures appear in SMILES notation.

Data on six compounds can be found in patent US9458092B2, “α-Substituted glycinamide derivative” (KISSEI PHARMACEUTICAL CO., LTD., priority 2013, dated 2016).

The target of data set [1] is T1, TRPM8 (Rattus norvegicus, UniProt Q8R455). The settings on record: cited from earlier work.
The test system of data set [2] is overactive bladder induced by acetic acid. As to the kind of experiment: Confirmation test of elongation action of micturition interval of overactive bladder induced by acetic acid. It counts as in vivo, female SD rats. The following applies: Rattus norvegicus, iv; 1 mg/kg/ml via the femoral vein; interval before administration = 100%. The procedure:
Urethane (sigma) was dissolved into pure water by 25% w/v, and female SD rats were anesthetized with 1.25 g/kg urethane by subcutaneous administration. Cannulae were placed in femoral vein and bladder, and the bladder cannula was connected to both a syringe pump and a pressure transducer. Detrusor overactivity was induced by intravesical infusion of 0.25% acetic acid in saline at a rate of 3.6 mL/h, and intravesical pressure was monitored via pressure transducer concurrently. Test compounds were dissolved into a mixture of dimethylacetamide and saline (20:80), and were administered via the femoral vein. When an average of the three micturition interval before administration was taken as 100%, an average of the three micturition interval after administration was calculated as Elongation of micturition interval (%) Dose and results are shown in tables 46 and 47.

The target of data set [3] is T1, TRPM8. Description: Confirmation test of inhibitory effects on icilin-induced wet-dog shakes. It counts as in vivo, female SD rats. Also on record: test compounds were orally administered to female SD rats; from tissue; host or cells: whole animal (female SD rats), endogenous channel. The settings on record: icilin 1 mg/kg i.p. after 1 hour, shakes counted for 5 minutes.

T1 sequence (Q8R455 whole entry): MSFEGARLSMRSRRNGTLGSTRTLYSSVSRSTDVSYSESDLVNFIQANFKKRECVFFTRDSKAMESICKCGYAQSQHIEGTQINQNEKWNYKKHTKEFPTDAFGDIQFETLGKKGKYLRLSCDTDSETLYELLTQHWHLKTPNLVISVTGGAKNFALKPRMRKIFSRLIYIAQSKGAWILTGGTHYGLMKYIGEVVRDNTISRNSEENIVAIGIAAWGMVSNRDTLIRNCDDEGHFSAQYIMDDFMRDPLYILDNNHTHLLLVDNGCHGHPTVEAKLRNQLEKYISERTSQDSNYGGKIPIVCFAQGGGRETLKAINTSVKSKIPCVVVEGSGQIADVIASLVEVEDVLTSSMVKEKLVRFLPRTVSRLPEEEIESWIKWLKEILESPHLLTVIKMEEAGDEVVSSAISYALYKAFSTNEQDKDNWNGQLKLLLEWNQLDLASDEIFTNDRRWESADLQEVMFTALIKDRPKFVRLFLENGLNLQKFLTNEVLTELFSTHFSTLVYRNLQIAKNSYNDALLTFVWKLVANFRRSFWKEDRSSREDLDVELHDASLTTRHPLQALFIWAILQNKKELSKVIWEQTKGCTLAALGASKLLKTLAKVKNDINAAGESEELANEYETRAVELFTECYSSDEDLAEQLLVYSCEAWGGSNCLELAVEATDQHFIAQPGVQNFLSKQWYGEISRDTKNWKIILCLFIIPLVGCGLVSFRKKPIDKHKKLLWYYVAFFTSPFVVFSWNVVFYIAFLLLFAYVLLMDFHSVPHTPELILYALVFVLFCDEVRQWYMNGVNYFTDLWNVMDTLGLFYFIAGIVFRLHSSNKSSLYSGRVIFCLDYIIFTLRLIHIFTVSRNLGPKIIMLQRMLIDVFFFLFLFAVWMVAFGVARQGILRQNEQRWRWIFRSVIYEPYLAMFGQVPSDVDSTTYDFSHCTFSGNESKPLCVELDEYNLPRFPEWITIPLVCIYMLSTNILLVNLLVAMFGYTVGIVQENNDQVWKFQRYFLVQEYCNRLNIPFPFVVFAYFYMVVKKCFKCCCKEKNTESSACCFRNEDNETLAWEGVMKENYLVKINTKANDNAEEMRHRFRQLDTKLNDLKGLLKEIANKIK

As to `Cc1cccc(COc2ccccc2C(=O)N(CCCN)Cc2cccs2)c1.Cl` [AMTB, N-(3-aminopropyl)-2-{[(3-methylphenyl)methyl]oxy}-N-(2-thienylmethyl)benzamide hydrochloride], on TRPM8 [1] (anesthetized rats), the “frequency of rhythmic bladder contractions” value was “suppresses” and the “nociceptive reflex responses to bladder distension” value is reported as “suppresses”. Further, the average blood pressure entry on TRPM8 [1] (rat, in vivo) is on record as “decrease”.
With `Cc1ncccc1C(=O)N([C@@H]1CCc2c(F)cc(Cl)cc21)[C@@H](C(N)=O)c1cccnc1` [Example 12, N-[(R)-carbamoylpyridin-3-ylmethyl]-N-[(R)-6-chloro-4-fluoroindan-1-yl]-2-methylnicotinamide], the response vs control in vivo at 1 mg/kg in data set [2] came out at 142%. For the same compound, at TRPM8 [3] (dose 10 mg/kg orally), the “% inhibition of Wet-Dog Shake” value was found to be 93%.
In turn, `NC(=O)[C@@H](c1ccccc1)N(C(=O)c1cccnc1)[C@@H]1CCc2c(F)cc(F)cc21` [Example 1-1, N-[(R)-Carbamoylphenylmethyl]-N-[(R)-4,6-difluoroindan-1-yl]nicotinamide] showed a response vs control in vivo at 1 mg/kg in data set [2] of 209%. The “% inhibition of Wet-Dog Shake” value at TRPM8 [3] (dose 10 mg/kg orally) was 95%.
Take `COc1ncccc1C(=O)N([C@@H]1CCc2ccc(Cl)cc21)[C@@H](C(N)=O)c1ccccc1` [Example 2-46LP, N-[(R)-carbamoylphenylmethyl]-N-[(R)-6-chloroindan-1-yl]-2-methoxynicotinamide]: in data set [2], the response vs control in vivo at 1 mg/kg stood at 186%. For the same compound, at TRPM8 [3] (dose 3 mg/kg orally), the “% inhibition of Wet-Dog Shake” value is 79%.
In data set [2], `NC(=O)[C@@H](c1ccccc1)N(C(=O)c1cccnc1)[C@@H]1CCc2ccc(Cl)cc21` [Example 2-31LP, N-[(R)-carbamoylphenylmethyl]-N-[(R)-6-chloroindan-1-yl]nicotinamide] gave a response vs control in vivo at 1 mg/kg of 176%. Also, the “% inhibition of Wet-Dog Shake” value at TRPM8 [3] (dose 10 mg/kg orally) is recorded as 87%.
`NC(=O)[C@@H](c1ccccc1)N(C(=O)c1cccnc1)[C@@H]1CCc2c(F)cc(Cl)cc21` [Example 2-23LP, N-[(R)-carbamoylphenylmethyl]-N-[(R)-6-chloro-4-fluoroindan-1-yl]nicotinamide] returned a response vs control in vivo at 1 mg/kg in data set [2] of 205%. Moreover, the “% inhibition of Wet-Dog Shake” value on TRPM8 [3] (dose 3 mg/kg orally) is given as 56%.
